In patent US11180452B2, “Methods and compositions for selectively inhibiting pathogenic microbes” (priority 2019, dated 2021):
Converted amounts (≈) assume the structure as drawn. “And” between values parts separate entries of the source, which are not always exact repeats. Equal values may be shown once. Read-outs that look alike come from different tables or passages of the source.

Tests used:
NoSpin HepaRG cells = experiment: HepaRG cytotoxicity, MTT assay EC50; type: cell-based, human; conditions: Homo sapiens, HepaRG; cytotoxicity EC50, Table 9
Protocol: Additionally, the antimicrobial compounds were analyzed for cytotoxicity. […] We utilized the standard MTT assay (Promega CellTiter 96) and GraphPad Prism 7 software to determine EC50 values for each analogue. Briefly, 20,000 HepG2 cells in 200 μl of the ATCC recommended media were seeded in each well of a 96-well plate with a moisture barrier created in the outermost wells. The cells were allowed to attach overnight at 37° C., and then observed under phase contrast microscopy for proper morphological characteristics. […] Once incubations were complete, the spectrophotometric absorbance of the samples was measured at a wavelength of 595 nm. […] For the HepaRG assay, NoSpin HepaRG™ cells (Lonza, cat #NSHPRG) were thawed and plated with 20,000 cells per well. They were allowed to attach for 4 h (optimal DME profile per Lonza's testing) before dosing following the identical protocol as above.

[1] = tested on: Francisella tularensis subsp. Holarctica Strain LVSR NR-597; experiment: microbe, parasite or virus in culture; type: cell-based
Bacillus subtilis = Bacillus subtilis MIC / MBC; type: cell-based; conditions: for MIC: Bacillus subtilis, Bacillus subtilis (Ehrenberg 1835) Cohn 1872 NRRL: B-571, read-out: MIC
N. gonorrhoeae = N. gonorrhoeae MIC; type: cell-based; conditions: Neisseria gonorrhoeae
Candida glabrata = Candida glabrata MIC / MFC; type: cell-based; conditions: Nakaseomyces glabratus, Candida glabrata #584 (Table 2); read-out: MIC
[2] = tested on: Burkholderia thailandensis Brett et al ATCC: 700388; experiment: microbe, parasite or virus in culture; type: cell-based
Bacillus thuringiensis = type: cell-based; conditions: Bacillus thuringiensis Berliner ATCC: 10792
[3] = tested on: Francisella tularensis strains; experiment: microbe, parasite or virus in culture; type: cell-based
[4] = Toxicity in mice, body weight over 7 days; type: in vivo, Balb/c mice; conditions: for Animal body weight (kg) Day 0 / Animal body weight (kg) Day 1 / Animal body weight (kg) Day 2 / Animal body weight (kg) Day 3 / Animal body weight (kg) Day 4 / Animal body weight (kg) Day 5 / Animal body weight (kg) Day 6 / Animal body weight (kg) Day 7: mice, IP; for Animal body weight (kg) Day 0: Day 0, individual animals; for Animal body weight (kg) Day 1: Day 1, individual animals; for Animal body weight (kg) Day 2: Day 2, individual animals; for Animal body weight (kg) Day 3: Day 3, individual animals; for Animal body weight (kg) Day 4: Day 4, individual animals; for Animal body weight (kg) Day 5: Day 5, individual animals; for Animal body weight (kg) Day 6: Day 6, individual animals; for Animal body weight (kg) Day 7: Day 7, individual animals
Description: The vehicle is 40% PEG300 solution in 0.9% NaCl. […] Thus, the compounds are useful for in vivo antimicrobial administration.

SMILES: Oc1ccccc1Sc1c[nH]c2ccc(C(F)(F)F)cc12 [Compound 177A, 2-((5-(trifluoromethyl)-1H-indol-3-yl)thio)phenol]
- EC50 (NoSpin HepaRG cells): 24.1 µg/mL (≈ 77.9 µM)
- MIC [1]: 0.78 µg/mL (≈ 2.52 µM)
- MIC (Bacillus subtilis): 0.39 µg/mL (≈ 1.26 µM)
- MIC (N. gonorrhoeae; strain #203): 3.13 µg/mL (≈ 10.1 µM)
- MIC (N. gonorrhoeae; strain #205): 3.13 µg/mL (≈ 10.1 µM)
- MIC (Candida glabrata): > 50 µg/mL
- MBC [2]: > 50 µg/mL
- MIC [2]: > 50 µg/mL

SMILES: Cc1[nH]c2ccc(Br)cc2c1Sc1ccccc1Br [Compound 174AZ, 5-bromo-3-((2-bromophenyl)thio)-2-methyl-1H-indole]
- MBC (Bacillus thuringiensis): 8 µg/mL (≈ 20.1 µM)
- MIC (Bacillus thuringiensis; Bacillus thuringiensis, read-out: MIC): 1 µg/mL (≈ 2.52 µM)
- EC50 (NoSpin HepaRG cells): 25.8 µg/mL (≈ 65 µM)
- MIC [1]: 1 µg/mL (≈ 2.52 µM)
- MIC50 [3]: 2 µg/mL (≈ 5.04 µM)
- MIC ([3]; read-out: F. tularensis BSL-3 MIC, Strain 100): 4 µg/mL (≈ 10.1 µM)
- MIC ([3]; read-out: F. tularensis BSL-3 MIC, strain HN-63): 2 µg/mL (≈ 5.04 µM)
- MIC ([3]; read-out: F. tularensis BSL-3 MIC, strain LVS): 2.67 µg/mL (≈ 6.72 µM)
- MIC ([3]; read-out: F. tularensis BSL-3 MIC, strain MA00-2987): 2 µg/mL (≈ 5.04 µM)
- MIC ([3]; read-out: F. tularensis BSL-3 MIC, strain MO #1): 1.33 µg/mL (≈ 3.35 µM)
- MIC ([3]; read-out: F. tularensis BSL-3 MIC, strain MO #2): 1 µg/mL (≈ 2.52 µM)
- MIC ([3]; read-out: F. tularensis BSL-3 MIC, strain MO #3): 2 µg/mL (≈ 5.04 µM)
- MIC ([3]; read-out: F. tularensis BSL-3 MIC, strain OR-96): 2 µg/mL (≈ 5.04 µM)
- MIC ([3]; read-out: F. tularensis BSL-3 MIC, strain SCHU S4): 4 µg/mL (≈ 10.1 µM)
- MIC ([3]; read-out: F. tularensis BSL-3 MIC, strain WY-96): 2 µg/mL (≈ 5.04 µM)
- MIC ([3]; read-out: MAX, highest MIC over the Francisella tularensis strains): 4 µg/mL (≈ 10.1 µM)
- MIC ([3]; read-out: MIN, lowest MIC over the Francisella tularensis strains): 1 µg/mL (≈ 2.52 µM)
- MBC (Bacillus subtilis; Bacillus subtilis NRRL: B-571, minimum bactericidal concentration): 4 µg/mL (≈ 10.1 µM)
- MIC (Bacillus subtilis): 1 µg/mL (≈ 2.52 µM)
- MIC (N. gonorrhoeae; strain #167): 3.12 µg/mL (≈ 7.87 µM)
- MIC (Candida glabrata): > 50 µg/mL
- toxicity in mice by body weight ([4]; 6-week-old Balb/c mice, body weight over 7 days, vehicle 40% PEG300 in 0.9% NaCl): did not have significant toxicity
- Animal body weight (kg) Day 0 ([4]; 0.1 mg/kg, 0.1 mg/kg): 0.023 kg (2×) and 0.025 kg
- Animal body weight (kg) Day 1 ([4]; 0.1 mg/kg, 0.1 mg/kg): 0.022 kg and 0.024 kg and 0.023 kg
- Animal body weight (kg) Day 2 ([4]; 0.1 mg/kg, 0.1 mg/kg): 0.022 kg and 0.025 kg and 0.023 kg
- Animal body weight (kg) Day 3 ([4]; 0.1 mg/kg, 0.1 mg/kg): 0.022 kg and 0.025 kg and 0.023 kg
- Animal body weight (kg) Day 4 ([4]; 0.1 mg/kg, 0.1 mg/kg): 0.023 kg (2×) and 0.025 kg
- Animal body weight (kg) Day 5 ([4]; 0.1 mg/kg, 0.1 mg/kg): 0.022 kg and 0.025 kg and 0.023 kg
- Animal body weight (kg) Day 6 ([4]; 0.1 mg/kg, 0.1 mg/kg): 0.022 kg and 0.025 kg and 0.023 kg
- Animal body weight (kg) Day 7 ([4]; 0.1 mg/kg, 0.1 mg/kg): 0.022 kg (2×) and 0.025 kg
- Animal body weight (kg) Day 0 ([4]; 1 mg/kg, 1 mg/kg): 0.024 kg (2×) and 0.025 kg
- Animal body weight (kg) Day 1 ([4]; 1 mg/kg, 1 mg/kg): 0.023 kg and 0.024 kg (2×)
- Animal body weight (kg) Day 2 ([4]; 1 mg/kg): 0.024 kg
- Animal body weight (kg) Day 3 ([4]; 1 mg/kg, 1 mg/kg): 0.025 kg and 0.024 kg (2×)
- Animal body weight (kg) Day 4 ([4]; 1 mg/kg, 1 mg/kg): 0.025 kg (2×) and 0.024 kg
- Animal body weight (kg) Day 5 ([4]; 1 mg/kg, 1 mg/kg): 0.025 kg and 0.023 kg and 0.024 kg
- Animal body weight (kg) Day 6 ([4]; 1 mg/kg, 1 mg/kg): 0.025 kg and 0.024 kg (2×)
- Animal body weight (kg) Day 7 ([4]; 1 mg/kg, 1 mg/kg): 0.025 kg and 0.023 kg and 0.024 kg
- Animal body weight (kg) Day 0 ([4]; 10 mg/kg, 10 mg/kg): 0.023 kg (2×) and 0.024 kg
- Animal body weight (kg) Day 1 ([4]; 10 mg/kg, 10 mg/kg): 0.022 kg (2×) and 0.023 kg
- Animal body weight (kg) Day 2 ([4]; 10 mg/kg, 10 mg/kg): 0.022 kg and 0.023 kg (2×)
- Animal body weight (kg) Day 3 ([4]; 10 mg/kg, 10 mg/kg): 0.022 kg (2×) and 0.023 kg
- Animal body weight (kg) Day 4 ([4]; 10 mg/kg): 0.023 kg
- Animal body weight (kg) Day 5 ([4]; 10 mg/kg): 0.023 kg
- Animal body weight (kg) Day 6 ([4]; 10 mg/kg, 10 mg/kg): 0.022 kg (2×) and 0.023 kg
- Animal body weight (kg) Day 7 ([4]; 10 mg/kg, 10 mg/kg): 0.023 kg (2×) and 0.022 kg

SMILES: Nc1ccccc1Sc1c[nH]c2ccc(C(F)(F)F)cc12 [Compound 177C, 2-((5-(trifluoromethyl)-1H-indol-3-yl)thio)aniline]
- EC50 (NoSpin HepaRG cells): 48.2 µg/mL (≈ 156 µM)
- MIC [1]: 3.13 µg/mL (≈ 10.2 µM)
- MIC (Bacillus subtilis): 0.39 µg/mL (≈ 1.26 µM)
- MIC (N. gonorrhoeae; strain #203): 3.13 µg/mL (≈ 10.2 µM)
- MIC (N. gonorrhoeae; strain #205): 3.13 µg/mL (≈ 10.2 µM)
- MIC (Candida glabrata): > 50 µg/mL
- MBC [2]: > 50 µg/mL
- MIC [2]: > 50 µg/mL
